According to EP1660440B1, “ACYLOXYALKYL CARBAMATE PRODRUGS, METHODS OF SYNTHESIS AND USE” (priority 2003, dated 2005):
Like-named read-outs stand apart in the source and are kept apart here.

Tests used:
physchem = conditions: aqueous buffer
Experimental: (§1) The stabilities of prodrugs were evaluated in one or more in vitro systems using a variety of tissue preparations following methods known in the art. The chemical stability of prodrugs in aqueous buffers at pH's of 2.0, 7.4 and 8.0 were also measured. […] Each preparation was incubated with test compound at 37°C for one hour. Aliquots (50 µL) were removed at 0, 30, and 60 min and quenched with 0.1 % trifluoroacetic acid in acetonitrile.

in vitro [1] = conditions: human, plasma
Experimental: as §1

[2] = Caco-2 cellular permeability of prodrugs; conditions: human
Experimental: (§2) For example, cellular permeability may be evaluated by examining the flux of a prodrug across a cultured polarized cell monolayer (e.g., Caco-2 cells). Caco-2 cells obtained from continuous culture (passage less than 28) were seeded at high density onto Transwell polycarbonate filters. Cells were maintained with DMEM / 10% fetal calf serum + 0.1 mM nonessential amino acids + 2 mM L-Gln, 5% CO2/ / 95% O2, 37°C until the day of the experiment. Permeability studies were conducted at pH 6.5 apically (in 50 mM MES buffer containing 1 mM CaCl2, 1mM MgCl2, 150 mM NaCl, 3 mM KCl, 1 mM NaH2PO4, 5 mM glucose) and pH 7.4 basolaterally (in Hanks' balanced salt solution containing 10 mM HEPES) in the presence of efflux pump inhibitors (250 µM MK-571, 250 µM Verapamil, 1 mM Ofloxacin). Inserts were placed in 12 or 24 well plates containing buffer and incubated for 30 min at 37C°. Prodrug (200 µM) was added to the apical or basolateral compartment (donor) and concentrations of prodrug and/or released parent drug in the opposite compartment (receiver) were determined at intervals over 1 hour using LC/MS/MS. Values of apparent permeability (Papp) were calculated using the equation: Papp = Vr (dC/dt)//(ACo) [formula]
(§3) Here Vr is the volume of the receiver compartment in mL; dC/dt is the total flux ofprodrug and parent drug (µM/s), determined from the slope of the plot of concentration in the receiver compartment versus time; Co is the initial concentration of prodrug in µM; A is the surface area of the membrane in cm^2.

Pancreatin stability = type: in vitro ADME, porcine; conditions: pig; for metabolised at 1 h, 5 µM: pH 7.5, 1 % (w/v) pancreatin, read-out: % of Baclofen Released; for remaining at 1 h, 5 µM: read-out: % of Prodrug Remaining
Experimental: Pancreatin Stability: Stability studies were conducted by incubating prodrug (5 µM) with 1 % (w/v) pancreatin (Sigma, P-1625, from porcine pancreas) in 0.025 M Tris buffer containing 0.5 M NaCl (pH 7.5) at 37 °C for 60 min. The reaction was stopped by addition of 2 volumes of methanol. After centrifugation at 14,000 rpm for 10 min, the supernatant was removed and analyzed by LC/MS/MS.

in vitro [3] = conditions: rat; for remaining at 1 h, 2 µM: liver s9, % of Prodrug Remaining
Experimental: as §1

in vitro [4] = conditions: human; for remaining at 1 h, 2 µM: liver s9, % of Prodrug Remaining
Experimental: as §1

Caco-2 cells = conditions: human, Caco-2, 200 uM
Experimental: as §2, §3

in vitro [5] = conditions: human
Experimental: (§4) For stability studies, prodrug (5 µM) was incubated in Caco-2 homogenate S9 fraction (0.5 mg protein per mL) for 60 min at 37°C. Concentrations of intact prodrug and released baclofen were determined at zero time and 60 minutes using LC/MS/MS.

in vitro [6] = conditions: rat, plasma
Experimental: as §1

[7] = type: in vivo; conditions: cynomolgus monkeys, intravenous bolus, 1.2 mg/kg
Experimental: R-Baclofen hydrochloride salt was administered to four male cynomolgus monkeys as an aqueous solution by intravenous bolus injection into the saphenous vein at a dose of 1.2 mg/kg. Blood samples were obtained from all animals at intervals over 24 hours post-dosing. Blood was processed immediately for plasma at 4°C. All plasma samples were subsequently analyzed for R-baclofen using the LC/MS/MS assay described above. The mean R-baclofen exposure AUCinf = 3.6 h.µg/mL.

[8] = Rat Plasma, 2.0 µM, 37°C, after 60 min, 60 min
Experimental: as §1

[9] = Human Plasma, 2.0 µM, 37°C, after 60 min, 60 min
Experimental: as §1

[10] = Caco-2 S9 (0.5 mg protein per mL), 5 µM, 37°C, after 60 min, 60 min
Experimental: as §4

[11] = Human Liver S9 (0.5 mg/mL), 2.0 µM, NADPH, 37°C, after 60 min, 60 min
Experimental: as §1

[12] = Rat Liver S9 (0.5 mg/mL), 2.0 µM, NADPH, 37°C, after 60 min, 60 min
Experimental: as §1

[13] = human, in vivo; cited from earlier work
in vitro [14] = conditions: human, Caco-2
Experimental: as §2, §3

[15] = pancreatin, 5 µM, pH 7.5, 37 °C, after 60 min
[16] = 1 % (w/v) pancreatin, 5 µM, pH 7.5, 37 °C, after 60 min

| SMILES | degraded at 1 h (physchem; pH 2, % of Baclofen Released) [%] | degraded at 1 h (physchem; pH 7.4, % of Baclofen Released) [%] | degraded at 1 h (physchem; pH 8, % of Baclofen Released) [%] | metabolised at 1 h, 2 µM (in vitro [1]; % of Baclofen Released) [%] | metabolised at 1 h, 5 µM (Pancreatin stability; [15]) [%] | remaining at 1 h, 5 µM (Pancreatin stability; [16]) [%] | metabolised at 1 h, 2 µM (in vitro [3]; liver s9) [%] | remaining at 1 h, 2 µM (in vitro [3]) [%] | metabolised at 1 h, 2 µM (in vitro [4]; liver s9) [%] | remaining at 1 h, 2 µM (in vitro [4]) [%] | metabolised at 1 h, 5 µM (in vitro [5]; caco-2 homogenate s9) [%] | metabolised at 1 h, 2 µM (in vitro [6]) [%] | degraded at 1 h (physchem; pH 2) [%] | degraded at 1 h (physchem; pH 7.4) [%] | degraded at 1 h (physchem; pH 8) [%] | metabolised at 1 h, 2 µM (in vitro [1]) [%] | metabolised at 1 h, 2 µM (in vitro [3]; s9) [%] | metabolised at 1 h, 2 µM (in vitro [4]; s9) [%] | metabolised at 1 h, 5 µM (in vitro [5]; s9) [%] | Papp A→B at 200 µM (in vitro [14]) [×10⁻⁶ cm/s] | other results |
| --- | --- | --- | --- | --- | --- | --- | --- | --- | --- | --- | --- | --- | --- | --- | --- | --- | --- | --- | --- | --- | --- |
| CCCC(=O)OC(OC(=O)NC[C@H](CC(=O)O)c1ccc(Cl)cc1)C(C)C (stereo partly shown) [(27)] | 0 | 0 | 1 | 12 | 9 | 71 | 89 | 0 | 79 | 8 | 67 | 88 | – | – | – | – | – | – | – | – | Papp A→B at 200 µM [2]: 65 ×10⁻⁶ cm/s; Papp B→A at 200 µM [2]: 9.4 ×10⁻⁶ cm/s; Ratio A-BB-A (Caco-2 cells): 6.9 |
| Cl.NC[C@H](CC(=O)O)c1ccc(Cl)cc1 [R-Baclofen hydrochloride salt] | – | – | – | – | – | – | – | – | – | – | – | – | – | – | – | – | – | – | – | – | mean R-baclofen exposure AUCinf [7]: 3600 ng·h/mL |
| CC(C)C(OC(=O)NC[C@H](CC(=O)O)c1ccc(Cl)cc1)OC(=O)C(C)(C)C (stereo partly drawn) [(43), Sodium 4-[(1-Pivaloyloxyisobutoxy)carbonylamino]-(3R)-(4-chlophenyl)-butanoate] | 0 | 0 | 0 | 2 | 4 | 82 | 97 | 3 | 39 | 61 | 49 | 29 | – | – | – | – | – | – | – | – | Papp A→B at 200 µM [2]: 42 ×10⁻⁶ cm/s; Papp B→A at 200 µM [2]: 18 ×10⁻⁶ cm/s; Ratio A-BB-A (Caco-2 cells): 2.3 |
| CCCC(=O)O[C@H](CCC)OC(=O)NC[C@H](CC(=O)O)c1ccc(Cl)cc1 [(86), Sodium 4-{[(1S)-Butanoyloybutoxy]carbonylamino}-(3R)-(4-chlorophenyl)-butanoate] | 0 | 1 | 2 | 13 | 76 | 4 | 92 | 2 | 87 | 2 | 95 | 83 | – | – | – | – | – | – | – | – | – |
| CC(C)C(=O)O[C@@H](OC(=O)NC[C@H](CC(=O)O)c1ccc(Cl)cc1)C(C)C [(104), 4-{[(1S)-Isobutanoyloxyisobutoxy]carbonylamino}-(3R)-(4-chlorophenyl) -butanoic Acid] | 0 | 0 | – | – | – | – | – | – | – | – | – | – | – | – | – | – | – | – | – | – | % of Prodrug Remaining (aqueous buffer pH 7.4, 37°C, after 60 min, 60 min): 100%; % of Baclofen Released (aqueous buffer pH 8.0, 37°C, after 60 min, 60 min): 0%; % of Prodrug Remaining (aqueous buffer, pH 2, 60 min): 100/0%; % of Prodrug Remaining (aqueous buffer, pH 8, 60 min): 100/0%; remaining at 1 h, 5 µM (Pancreatin stability; pancreatin, pH 7.5): 90%; % of Baclofen Released [8]: 85%; % of Prodrug Remaining [8]: 14%; % of Baclofen Released [9]: 2%; % of Prodrug Remaining [9]: 98%; % of Baclofen Released [10]: 83%; % of Prodrug Remaining [10]: 17%; % of Baclofen Released [11]: 97%; % of Prodrug Remaining [11]: 3%; % of Baclofen Released [12]: 97%; % of Prodrug Remaining [12]: 3% |
| NCC(CC(=O)O)c1ccc(Cl)cc1 (racemic) [Baclofen, (±)-4-Amino-3-(4-chlorophenyl)butanoic acid] | – | – | – | – | – | – | – | – | – | – | – | – | – | – | – | – | – | – | – | – | elimination half-life [13]: 3 to 4 h |
| CCCC(=O)OCOC(=O)NC[C@H](CC(=O)O)c1ccc(Cl)cc1 [(16), Sodium 4-[(Butanoyloxymethoxy)carbonylamino]-(3R)-(4-chlorophenyl)-butanoate] | – | – | – | – | 84 | 1 | – | – | – | – | – | 40 | 0 | 0 | 0 | 20 | 100 | 100 | 100 | 6.1 | Papp B→A at 200 µM (in vitro [14]): 1.2 ×10⁻⁶ cm/s |
| CC(=O)OC(C)OC(=O)NC[C@H](CC(=O)O)c1ccc(Cl)cc1 (stereo partly drawn) [(30), Sodium 4-[(1-Acetoxyethoy)carbonylamino]-(3R)-(4-chlorophenyl)-butanoate] | – | – | – | – | 9 | 90 | – | – | – | – | – | 42 | 0 | 1 | 3 | 8 | 85 | 87 | 70 | 8.7 | Papp B→A at 200 µM (in vitro [14]): 2.3 ×10⁻⁶ cm/s |
| CC(C)C(=O)OCOC(=O)NC[C@H](CC(=O)O)c1ccc(Cl)cc1 [(18), Sodium 4-[(Isobutanoyloxymethoxy)carbonylamino]-(3R)-(4-chlorophenyl)-butanoate] | – | – | – | – | 91 | 2 | – | – | – | – | – | 60 | 0 | 0 | 0 | 27 | 100 | 100 | 100 | 6.4 | Papp B→A at 200 µM (in vitro [14]): 5.6 ×10⁻⁶ cm/s |
